Test results from PubChem BioAssay (NCI).
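Growth conditions: 96-well plates. Treatment: test compound, 48 hours, 5 concentrations. Analysis: linear interpolation between bracketing concentrations; unreached endpoints set to highest concentration. TGI: concentration producing complete growth inhibition.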

What was measured:
Assay in all cases: inhibition of tumour cell growth, NCI panel, 48 h
LOX IMVI melanoma = system: LOX IMVI melanoma
CAKI-1 renal = system: CAKI-1 renal
HCC-2998 colon = system: HCC-2998 colon
A549 NSCLC = system: A549 NSCLC
HL-60(TB) leukemia = system: HL-60(TB) leukemia
MCF7 breast = system: MCF7 breast
RXF 393 renal = system: RXF 393 renal
KM12 colon = system: KM12 colon
SW-620 colon = system: SW-620 colon
OVCAR-3 ovarian = system: OVCAR-3 ovarian
DU-145 prostate = system: DU-145 prostate
BT-549 breast = system: BT-549 breast
T-47D breast = system: T-47D breast
M14 melanoma = system: M14 melanoma
K-562 leukemia = system: K-562 leukemia
NCI/ADR-RES ovarian = system: NCI/ADR-RES ovarian
NCI-H460 lung = system: NCI-H460 lung
OVCAR-8 ovarian = system: OVCAR-8 ovarian
EKVX NSCLC = system: EKVX NSCLC
HCT-15 colon = system: HCT-15 colon
SK-MEL-28 melanoma = system: SK-MEL-28 melanoma
SK-MEL-2 melanoma = system: SK-MEL-2 melanoma
MDA-MB-231 breast = system: MDA-MB-231 breast
SK-MEL-5 melanoma = system: SK-MEL-5 melanoma
TK-10 renal = system: TK-10 renal
HCT-116 colon = system: HCT-116 colon
SF-539 CNS = system: SF-539 CNS
RPMI-8226 leukemia = system: RPMI-8226 leukemia
SN12C renal = system: SN12C renal
HT29 colon = system: HT29 colon
MDA-N = system: MDA-N
SF-295 CNS = system: SF-295 CNS
MALME-3M melanoma = system: MALME-3M melanoma
NCI-H23 lung = system: NCI-H23 lung
ACHN renal = system: ACHN renal
SF-268 CNS = system: SF-268 CNS
NCI-H226 lung = system: NCI-H226 lung
786-0 renal = system: 786-0 renal
PC-3 prostate = system: PC-3 prostate
SNB-19 CNS = system: SNB-19 CNS
SK-OV-3 ovarian = system: SK-OV-3 ovarian
MDA-MB-435 = system: MDA-MB-435
COLO 205 colon = system: COLO 205 colon
UACC-62 melanoma = system: UACC-62 melanoma
CCRF-CEM leukemia = system: CCRF-CEM leukemia
UO-31 renal = system: UO-31 renal
HOP-62 NSCLC = system: HOP-62 NSCLC
OVCAR-5 ovarian = system: OVCAR-5 ovarian
U251 CNS = system: U251 CNS
OVCAR-4 ovarian = system: OVCAR-4 ovarian
HS 578T breast = system: HS 578T breast
MOLT-4 leukemia = system: MOLT-4 leukemia
NCI-H522 lung = system: NCI-H522 lung
SR leukemia = system: SR leukemia
UACC-257 melanoma = system: UACC-257 melanoma
IGROV1 ovarian = system: IGROV1 ovarian
SNB-75 CNS = system: SNB-75 CNS
HOP-92 NSCLC = system: HOP-92 NSCLC

Measured: TGI

NC1CSc2ccccc2NC1=O (centres undefined)
not listed: HOP-92 NSCLC
> 100 µM: all other assays above

O=C(OCCN1CCCCCC1)C(c1ccsc1)C1CCCCC1 (centres undefined)
28.8 µM: OVCAR-3 ovarian
39 µM: NCI-H23 lung
33 µM: MCF7 breast | NCI-H460 lung
29.6 µM: BT-549 breast | HCT-116 colon
26.9 µM: UO-31 renal
31.8 µM: MDA-MB-231 breast | 786-0 renal | SK-OV-3 ovarian
40.2 µM: CCRF-CEM leukemia
34.5 µM: OVCAR-8 ovarian | UACC-257 melanoma
30.8 µM: HCT-15 colon | SF-539 CNS
32.5 µM: OVCAR-5 ovarian
29.9 µM: HOP-62 NSCLC
33.1 µM: ACHN renal
31.2 µM: HOP-92 NSCLC
24.2 µM: IGROV1 ovarian
35.7 µM: EKVX NSCLC
70.6 µM: HL-60(TB) leukemia
32.2 µM: LOX IMVI melanoma | SNB-75 CNS
31.4 µM: NCI/ADR-RES ovarian
33.5 µM: TK-10 renal
31.5 µM: HCC-2998 colon
33.2 µM: DU-145 prostate
33.4 µM: SW-620 colon
29.4 µM: CAKI-1 renal
22.7 µM: COLO 205 colon
37.8 µM: HS 578T breast
28.4 µM: MDA-N
40.4 µM: SNB-19 CNS
32.1 µM: KM12 colon | RPMI-8226 leukemia | U251 CNS
32.3 µM: MDA-MB-435
17.8 µM: T-47D breast
36.8 µM: SF-268 CNS
57.2 µM: SR leukemia
32.4 µM: SF-295 CNS
28.2 µM: MALME-3M melanoma
50.6 µM: MOLT-4 leukemia
44.9 µM: PC-3 prostate
36.2 µM: SK-MEL-28 melanoma
31.6 µM: HT29 colon
32.8 µM: M14 melanoma | SN12C renal
44.5 µM: A549 NSCLC

O=C(OCCN=C1c2ccccc2CCc2ccccc21)c1ccccc1
39 µM: MOLT-4 leukemia
50.2 µM: SR leukemia
34.2 µM: RPMI-8226 leukemia
not listed: NCI-H522 lung
> 100 µM: all other assays above
